Results as given in EP3821949B1, “PHARMACEUTICAL COMPOSITION FOR USE IN THE TREATMENT OF A CANCER ASSOCIATED WITH THE ACTIVATION OF GALECTIN-1” (Trineo Biotechnology Co. Ltd, priority 2019, dated 2021).
“And” between values parts separate entries of the source, which are not always exact repeats. Equal entries are not always repeated.

Key:
Assay type in all cases: cell-based
galectin-1 = assay: Western blot analysis of galectin-1 expression in ES-2 cells; details: Figure 2
Method: Samples were respectively subjected to SDS-PAGE, transferred to PVDF membranes. These blots were blocked with 5% nonfat milk powder in TBS-0.1% Tween-20 for 30 minutes, followed by incubation with primary antibodies at 4°C overnight and then horseradish peroxidaseconjugated secondary antibodies (Amersham Biosciences, Piscataway). Imaging of bands was performed using Pierce ECL Western Blotting Substrate (Thermo Fisher Scientific) and ImageQuant LAS-4000 (GE Healthcare).
In this example, the effects of TN-GL-01 composition on the expression of galectin-1 in ERK (extracellular-signal-regulated kinase) pathway was invesigated via western blot analysis. […] Thus, it was concluded that the present TN-GL-01 composition exerted its function through suppression of galectin -1.

ES-2 cells = assay: MTT assay (cell activity analysis) on ovarian cancer ES-2 cells; details: treatment at least 48 hrs
Method: Ovarian cancer cell ES-2 and myeloma cell line ARH-77 were used in the present disclosure. Cells was cultured and maintained in Dulbecco's modified Eagle media (DMEM) supplemented with 10 % fetal bovine serum (FBS), 100 IU/ml penicillin, […] streptomycin, 2 mM glutamine, nonessential amino acids and sodium pyruvate in 5% CO2 at 37 °C. Cells were grown and maintained in Petri dishes (each was 10 cm in diameter) until they reached 80% confluence, and then were subject to cell passages. Briefly, cells were first washed with phosphate buffer solution (PBS, 3 ml) once, then treated with 0.05% Trypsin/0.025% EDTA solution (1 mL) for 5 min so that the attached cells become suspended. […]
50 µL of the MTT stock solution (5 mg MTT dissolved in 1 ml of sterile PBS) was added to each well, and 50 µL of the MTT stock solution was added to 500 µL of medium alone and used as a negative control. […] Aliquots (450 µl) from each sample were taken to a new well of 48-well culture plate, adding 100µL DMSO, mixing thoroughly using the pipette and reacted at 37°C for 20 min and absorbance was measured at 570 nm.
The effects of the TN-GL-01 composition of example 1.1 on ovarian cancer cells (i.e., ES-2 cells) were evaluated by MTT assay in accordance with procedures described in the "Material and Methods" section.

myeloma ARH-77 cells = assay: MTT assay on myeloma ARH-77 cells, chemotherapeutic drug alone or combined with TN-GL-01 or a comparative drug; details: for IC50: Homo sapiens, ARH-77 cells, chemotherapeutic agent alone (control)
Method: Ovarian cancer cell ES-2 and myeloma cell line ARH-77 were used in the present disclosure. Cells was cultured and maintained in Dulbecco's modified Eagle media (DMEM) supplemented with 10 % fetal bovine serum (FBS), 100 IU/ml penicillin, […] streptomycin, 2 mM glutamine, nonessential amino acids and sodium pyruvate in 5% CO2 at 37 °C. Cells were grown and maintained in Petri dishes (each was 10 cm in diameter) until they reached 80% confluence, and then were subject to cell passages. Briefly, cells were first washed with phosphate buffer solution (PBS, 3 ml) once, then treated with 0.05% Trypsin/0.025% EDTA solution (1 mL) for 5 min so that the attached cells become suspended. The suspended cells were harvested and 2 mL fresh culture media were added therein to neutralize any remaining activity of trypsin. Cell density was adjusted by adding appropriate amounts of culture medium to the cell suspension, which was then used to seed the culture plates. The plates were then returned to the incubator, and cultured in accordance with the steps described above.
Cells were seeded in 96-well plates with a density of 3,000 cells/well and cultured in accordance with the procedures described above. On the day when cell activity analysis was to be conducted, cells were first treated with various concentrations of the triterpenoids of the present disclosure, imatinib or gefitinib for at least 48 hrs, before subjecting them to MTT assay.
50 µL of the MTT stock solution (5 mg MTT dissolved in 1 ml of sterile PBS) was added to each well, and 50 µL of the MTT stock solution was added to 500 µL of medium alone and used as a negative control. Each sample was incubated at 37°C for 4 hours. Aliquots (450 µl) from each sample were taken to a new well of 48-well culture plate, adding 100µL DMSO, mixing thoroughly using the pipette and reacted at 37°C for 20 min and absorbance was measured at 570 nm.
In this example, the effect of TN-GL-01 composition of example 1.1 on the cell killing effect of a chemotherapeutic drug (i.e., etoposide, doxorubicin, cisplatin, and paclitaxel) on myeloma ARH-77 cells was investigated, in which cyclophosphamide served as a comparative drug. Results are summarized in Tables 1 to 3, and Figures 3 and 4.
To determine the effects of combined use of TN-GL-01 and any other three drugs including paclitaxel, doxorubicin, and cisplatin, the statistical differences between expected value and oberved value of the survival rate were calculated. If no significantance existed between the expected and observed values, the effect is termed"additivity (p > 0.05)". […] The expected value was determined by multifying the survival rate of each drug in specific dose. The obtained value and value of each survival rate were measured by MMT assay (Fig. 3 and Fig. 4).

[1] = Table 2, second agent alone: TN-GL-01 20 µg/mL, Doxorubicin 100 nM, Cisplatin 3 µM
[2] = Table 3, second agent alone: TN-GL-01 20 µg/mL, Paclitaxel 40 µM, Cisplatin 3 µM

SMILES: C/C(=C/CC[C@@H](C)[C@H]1CC[C@@]2(C)C3=CC[C@H]4C(C)(C)C(=O)CC[C@]4(C)C3=CC[C@]12C)C(=O)O [GAS, ganoderic acid S]
- expression of galectin-1 (galectin-1): effective in suppressing
- 50% inhibition of ES-2 cells (IC50) (ES-2 cells): 58.3 µg/mL

SMILES: COc1cccc2c1C(=O)c1c(O)c3c(c(O)c1C2=O)C[C@@](O)(C(=O)CO)C[C@@H]3O[C@H]1C[C@H](N)[C@H](O)[C@H](C)O1 [Doxorubicin]
- IC50 (myeloma ARH-77 cells): 99 nM
- Cell Survival Rate, single drug (factor of expected value) (myeloma ARH-77 cells; [1]): 0.58

SMILES: CC(=O)O[C@H]1C(=O)[C@@]2(C)[C@H]([C@H](OC(=O)c3ccccc3)[C@]3(O)C[C@H](OC(=O)[C@H](O)[C@@H](NC(=O)c4ccccc4)c4ccccc4)C(C)=C1C3(C)C)[C@]1(OC(C)=O)CO[C@@H]1C[C@@H]2O [Paclitaxel]
- Cell Survival Rate, single drug (factor of expected value) (myeloma ARH-77 cells; Table 2, Paclitaxel 62.5 nM alone): 0.68 × 0.82 = 0.56±0.03 and 0.68
- Cell Survival Rate, single drug (factor of expected value) (myeloma ARH-77 cells; Table 2, Paclitaxel 125 nM alone): 0.50 × 0.82 = 0.41±0.03 and 0.50
- Cell Survival Rate, single drug (factor of expected value) (myeloma ARH-77 cells; [2]): 0.65

SMILES: COc1cc([C@@H]2c3cc4c(cc3[C@@H](O[C@@H]3O[C@@H]5CO[C@@H](C)O[C@H]5[C@H](O)[C@H]3O)[C@H]3COC(=O)[C@H]23)OCO4)cc(OC)c1O [Etoposide]
- IC50 (myeloma ARH-77 cells): 415 nM

SMILES: N.N.[Cl][Pt][Cl] [Cisplatin]
- Cell Survival Rate, single drug (factor of expected value) (myeloma ARH-77 cells; [1]): 0.65
- Cell Survival Rate, single drug (factor of expected value) (myeloma ARH-77 cells; [2]): 0.69

SMILES: CC(=O)O[C@@H](C/C=C(\C)C(=O)O)[C@@H](C)[C@H]1C[C@H](OC(C)=O)[C@@]2(C)C3=CC[C@H]4C(C)(C)[C@H](OC(C)=O)CC[C@]4(C)C3=CC[C@]12C [GAT, ganoderic acid T]
- expression of galectin-1 (galectin-1): effective in suppressing
- 50% inhibition of ES-2 cells (IC50) (ES-2 cells): 24.5 µg/mL
